In the experiment the target is T1, TBK1 (Homo sapiens, UniProt Q9UHD2).
T1 construct: All protein kinases were of human origin and encoded full length proteins, unless indicated otherwise; His6; made in house; host or cells: insect Sf21 cells
T1 sequence (Q9UHD2 1-729): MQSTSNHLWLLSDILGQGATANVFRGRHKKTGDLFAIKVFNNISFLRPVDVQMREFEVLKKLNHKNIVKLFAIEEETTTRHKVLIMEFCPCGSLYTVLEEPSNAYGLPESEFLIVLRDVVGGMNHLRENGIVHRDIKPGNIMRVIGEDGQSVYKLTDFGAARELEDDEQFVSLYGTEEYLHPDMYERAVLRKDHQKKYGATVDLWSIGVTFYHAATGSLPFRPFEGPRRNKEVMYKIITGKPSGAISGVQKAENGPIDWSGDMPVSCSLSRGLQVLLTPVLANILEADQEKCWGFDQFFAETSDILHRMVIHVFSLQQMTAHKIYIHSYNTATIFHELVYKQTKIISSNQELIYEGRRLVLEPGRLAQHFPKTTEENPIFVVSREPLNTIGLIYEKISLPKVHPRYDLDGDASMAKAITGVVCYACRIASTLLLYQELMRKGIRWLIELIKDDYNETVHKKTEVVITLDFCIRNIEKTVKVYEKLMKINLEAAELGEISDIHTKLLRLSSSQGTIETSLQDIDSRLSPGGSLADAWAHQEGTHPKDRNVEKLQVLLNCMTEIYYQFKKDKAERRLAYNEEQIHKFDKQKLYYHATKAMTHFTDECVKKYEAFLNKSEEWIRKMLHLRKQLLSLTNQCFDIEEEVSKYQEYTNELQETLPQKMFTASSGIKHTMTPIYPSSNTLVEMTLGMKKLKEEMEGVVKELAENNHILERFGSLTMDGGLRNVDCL
Put plainly: TBK1 protein kinase assay ([γ-33P]ATP, P81 filterplates). Type of experiment: biochemical. The conditions noted are these: 50 μM ATP. The essentials:
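Human TBK1 assayed for 30 min with peptide substrate (300 μM), 50 μM [γ-33P]ATP and 10 mM magnesium acetate in 50 mM Tris/HCl pH 7.5, 0.1 mM EGTA, 0.1% 2-mercaptoethanol. Stopped with orthophosphoric acid and counted on P81 filters. IC50 from 10 compound concentrations.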

The mark [1] stands for this setting: read-out: Potency (TBK1 IC50 potency score).

Structures are written as SMILES. Structures can show the parent of a compound that is named as a salt. Where two headings read alike, the source gives them in different places. Where only a bound is given, the exact number is not on record here.

Regarding `CN1CCC(NC(=O)c2cccc(Nc3ncc(C4CC4)c(NCCCNC(=O)C4CCC4)n3)c2)CC1` [Example 82, 3-{4-[3-(Cyclobutanecarbonyl-amino)-propylamino]-5-cyclopropyl-pyrimidin-2-ylamino}-N-(1-methyl-piperidin-4-yl)-benzamide], the IC50 under setting [1] was 100 to 1000 nM.
As for `CN(C)[C@H]1CCN(Cc2ccc(Nc3ncc(C4CC4)c(NCCCNC(=O)C4CCC4)n3)cn2)C1` [Example 146, Cyclobutanecarboxylic acid (3-{5-cyclopropyl-2-[6-((S)-3-dimethylamino-pyrrolidin-1-ylmethyl)-pyridin-3-ylamino]-pyrimidin-4-ylamino}-propyl)-amide], the IC50 under setting [1] was less than 100 nM.
The same measure, in the same setting: as for `O=C(NCCCNc1nc(Nc2ccc(CN3CCCCC3)nc2)ncc1C1CC1)C1CCC1` [Example 156, Cyclobutanecarboxylic acid {3-[5-cyclopropyl-2-(6-piperidin-1-ylmethyl-pyridin-3-ylamino)-pyrimidin-4-ylamino]-propyl}-amide], the figure is less than 100 nM.
On the same count and under the same terms, the figure for `O=C(NCCCNc1nc(Nc2cccc(F)c2)ncc1C1CC1)c1nccs1` [Example 20, Thiazole-2-carboxylic acid {3-[5-cyclopropyl-2-(3-fluoro-phenylamino)-pyrimidin-4-ylamino]-propyl}-amide] is less than 100 nM; for `O=C(NCCCNc1nc(Nc2cccc(Br)c2)ncc1C1CC1)C1CCC1` [Example 141, Cyclobutanecarboxylic acid {3-[2-(3-bromo-phenylamino)-5-cyclopropyl-pyrimidin-4-ylamino]-propyl}-amide] it is less than 100 nM.
Take `O=C(NCCCNc1nc(Nc2cccc(CN3CCCCC3)c2)ncc1C1CC1)C1CCC1` [Example 134, Cyclobulanecarboxylic acid {3-[5-cyclopropyl-2-(3-piperidin-1-ylmethyl-phenylamino)-pyrimidin-4-ylamino]-propyl}-amide]: under setting [1], the IC50 was less than 100 nM.
Same read-out and setting: the figure for `O=C(NCCCNc1nc(Nc2ccc3cnn(CC4CC4)c3c2)ncc1C1CC1)C1CCC1` [Example 193, Cyclobutanecarboxylic acid {3-[5-cyclopropyl-2-(1-cyclopropylmethyl-1H-indazol-6-ylamino)-pyrimidin-4-ylamino]-propyl}-amide] is less than 100 nM; for `O=C(NCCCNc1nc(Nc2ccc3nc[nH]c3c2)ncc1C1CC1)C1CCC1` [Example 96, Cyclobutanecarboxylic acid {3-[2-(3H-benzimidazol-5-ylamino)-5-cyclopropyl-pyrimidin-4-ylamino]-propyl}-amide] it is less than 100 nM.
On the same count and under the same terms, the figure for `Cc1ccc(C(=O)NCCCNc2nc(Nc3cccc(F)c3)ncc2C2CC2)s1` [Example 12, 5-Methyl-thiophene-2-carboxylic acid {3-[5-cyclopropyl-2-(3-fluoro-phenylamino)-pyrimidin-4-ylamino]-propyl}-amide] is 100 to 1000 nM; for `CN(C)[C@@H]1CCN(C(=O)c2cccc(Nc3ncc(C4CC4)c(NCCCNC(=O)C4CCC4)n3)c2)C1` [Example 126, Cyclobutanecarboxylic acid (3-{5-cyclopropyl-2-[3-((R)-3-dimethylamino-pyrrolidine-1-carbonyl)-phenylamino]-pyrimidin-4-ylamino}-propyl)-amide] it is less than 100 nM; for `CN(C)CC(=O)NCCCNc1nc(Nc2cccc(F)c2)ncc1C1CC1` [Example 4, N-{3-[5-Cyclopropyl-2-(3-fluoro-phenylamino)-pyrimidin-4-ylamino]-propyl}-2-dimethylamino-acetamide trifluoroacetic acid salt] it is 100 to 1000 nM.
`O=c1c(C(F)(F)F)cccn1CCCNc1nc(Nc2cccc(F)c2)ncc1C1CC1` [Example 114, 1-{3-[5-Cyclopropyl-2-(3-fluoro-phenylamino)-pyrimidin-4-ylamino]-propyl}-3-trifluoromethyl-1H-pyridin-2-one]: the IC50 under setting [1] was 100 to 1000 nM.
On the same count and under the same terms, the figure for `O=C(NCCCNc1nc(Nc2cccc(C(=O)N3CCCC3)c2)ncc1C1CC1)C1CCC1` [Example 124, Cyclobutanecarboxylic acid (3-{5-cyclopropyl-2-[3-(pyrrolidine-1-carbonyl)-phenylamino]-pyrimidin-4-ylamino}-propyl)-amide] is less than 100 nM; for `O=C(NCCCNc1nc(Nc2ccc(N3CCCC3=O)cc2)ncc1C1CC1)C1CCC1` [Example 184, Cyclobutanecarboxylic acid (3-{5-cyclopropyl-2-[4-(2-oxo-pyrrolidin-1-yl)-phenylamino]-pyrimidin-4-ylamino}-propyl)-amide. xHCl] it is less than 100 nM; for `CC(=O)NCCCNc1nc(Nc2cccc(F)c2)ncc1C1CC1` [Example 1, N-{3-[5-Cyclopropyl-2-(3-fluoro-phenylamino)-pyrimidin-4-ylamino]-propyl}-acetamide trifluoroacetic acid salt] it is 100 to 1000 nM.
On to `O=C(NCCCNc1nc(Nc2cccc(N3CCOCC3)c2)ncc1C1CC1)C1CCC1` [Example 41, Cyclobutanecarboxylic acid {3-[5-cyclopropyl-2-(3-morpholin-4-yl-phenylamino)-pyrimidin-4-ylamino]-propyl}-amide], for which the IC50 under setting [1] was less than 100 nM.
For `O=C(NCCCNc1nc(Nc2cccc(Cl)c2)ncc1C1CC1)c1cccs1` [Example 55, Thiophene-2-carboxylic acid {3-[2-(3-chloro-phenylamino)-5-cyclopropyl-pyrimidin-4-ylamino]-propyl}-amide], the IC50 under setting [1] fell in the range of 100 to 1000 nM.
Still for that read-out and setting: as for `O=C(NCCCNc1nc(Nc2cccc(OCCN3CCOCC3)c2)ncc1C1CC1)C1CCC1` [Example 143, Cyclobutanecarboxylic acid (3-{5-cyclopropyl-2-[3-(2-morpholin-4-yl-ethoxy)-phenylamino]-pyrimidin-4-ylamino}-propyl)-amide], the figure is less than 100 nM; as for `CN(CCCNc1nc(Nc2ccc(N3CCOCC3)nc2)ncc1C1CC1)C(=O)C1CCC1` [Example 109, Cyclobutanecarboxylic acid {3-[5-cyclopropyl-2-(6-morpholin-4-yl-pyridin-3-ylamino)-pyrimidin-4-ylamino]-propyl}-methyl-amide], less than 100 nM.
On the same count and under the same terms, the figure for `CC(C)CN(C)Cc1cccc(Nc2ncc(C3CC3)c(NCCCNC(=O)C3CCC3)n2)c1` [Example 133, Cyclobutanecarboxylic acid [3-(5-cyclopropyl-2-{3-[(isobutyl-methyl-amino)-methyl]-phenylamino}-pyrimidin-4-ylamino)-propyl]-amide] is less than 100 nM.
Turning to `O=C(NCCCNc1nc(Nc2ccc(CCN3CCCC3)cc2)ncc1C1CC1)C1CCC1` [Example 183, Cyclobutanecarboxylic acid (3-{5-cyclopropyl-2-[4-(2-pyrrolidin-1-yl-ethyl)-phenylamino]-pyrimidin-4-ylamino}-propyl)-amide], under setting [1], the IC50 was less than 100 nM.
In the case of `O=C(NCCCNc1nc(Nc2ccc3nn(CC4CC4)cc3c2)ncc1C1CC1)C1CCC1` [Example 213, Cyclobutanecarboxylicacid{3-[5-cyclopropyl-2-(2-cyclopropylmethyl-2H-indazol-5-ylamino)-pyrimidin-4-ylamino]-propyl}-amide], the IC50 under setting [1] was less than 100 nM.
Turning to `O=C(NCCCNc1nc(Nc2ccc(Cn3cncn3)cc2)ncc1C1CC1)C1CCC1` [Example 182, Cyclobutanecarboxylic acid {3-[5-cyclopropyl-2-(4-1,2,4-triazol-1-ylmethyl-phenylamino)-pyrimidin-4-ylamino]-propyl}-amide], under setting [1], the IC50 was less than 100 nM.
Take `CC(C)c1cnc(Nc2cccc(F)c2)nc1NCCCNC(=O)C1CCC1` [Compound B, cyclobutanecarboxylic acid {3-[2-(3-fluoro-phenylamino)-5-isopropyl-pyrimidin-4-ylamino]-propyl}-amide, reference compound]: for the setting “Table 5, read-out: TBK1 IC50”, the IC50 is greater than 1000 nM.
In the case of `O=C(NCCCNc1nc(Nc2ccc(NC3CCOCC3)nc2)ncc1C1CC1)C1CCC1` [Example 207, Cyclobutanecarboxylic acid (3-{5-cyclopropyl-2-[6-(tetrahydro-pyran-4-ylamino)-pyridin-3-ylamino]-pyrimidin-4-ylamino}-propyl)-amide], the IC50 under setting [1] was less than 100 nM.
`O=C(NCCCNc1nc(Nc2cccc(-c3ccncc3)c2)ncc1C1CC1)C1CCC1` [Example 121, Cyclobutanecarboxylic acid {3-[5-cyclopropyl-2-(3-pyridin-4-yl-phenylamino)-pyrimidin-4-ylamino]-propyl}-amide]: under setting [1], the IC50 is less than 100 nM.
As to `O=C(NCCCNc1nc(Nc2cccc(-c3cncnc3)c2)ncc1C1CC1)C1CCC1` [Example 117, Cyclobutanecarboxylic acid {3-[5-cyclopropyl-2-(3-pyrimidin-5-yl-phenylamino)-pyrimidin-4-ylamino]-propyl}-amide], under setting [1], the IC50 is less than 100 nM.
